Measurements: patent US20050191245A1, “Nasal administration of calcium channel, blockers for treatment of hypertension and other cardiovascular disorders” (priority 2004, published 2005)
Read-outs that look alike come from different tables or passages of the source.

Columns and labels:
male Sprague-Dawley rats [1] = system: male Sprague-Dawley rats
male Sprague-Dawley rats [2] = conditions: nasal, 2%, 20 uL/nare; vehicle cyclodextrin; urethane-anesthetized rats; FIG. 2
Method: Mean arterial blood pressure was measured using a Digi-Med Blood Pressure Analyzer. The rats were anesthetized with urethane (2 g/kg, IP) and the left carotid artery was cannulated. A baseline blood pressure was recorded then the drug (or vehicle) was administered and blood pressure recorded for 45-60 minutes.

Row | Structure (SMILES) | total distance traveled, drug treated groups compared to vehicle treated group (male Sprague-Dawley rats [1]; nasal, 2%, 20 uL/nare, vehicle distilled water, an hour after administration, FIG. 5) | total distance traveled, compared to no treatment group (male Sprague-Dawley rats [1]; rat, in vivo) | total distance traveled, drug treated groups compared to vehicle treated group (male Sprague-Dawley rats [1]; rat, in vivo) | effect on mean arterial blood pressure compared to vehicle treated group (male Sprague-Dawley rats [2])
1 | COc1ccc(CCN(C)CCCC(C#N)(c2ccc(OC)c(OC)c2)C(C)C)cc1OC (centres unmarked) [verapamil] | no significant difference | – | – | –
2 | C(=C\c1ccccc1)/CN1CCN(C(c2ccccc2)c2ccccc2)CC1 [cinnarizine] | – | statistically significant difference | no significant difference | Only the nifedipine group at 45 minutes was statistically significantly different
3 | COc1ccc([C@@H]2Sc3ccccc3N(CCN(C)C)C(=O)[C@@H]2OC(C)=O)cc1 [diltiazem] | – | – | no significant difference | –
